The assay relates to C57BL/6 mice. The assay can be described thus: animal or person. The assay is classed as in vivo. Particulars: Mus musculus, sc, 0.5 h, s.c. administration, 30 min, 55° C. water, read-out: ED50 (mg/kg) at 30 min on C57BL/6 mice in Warm-water Tail-flick Test. A general note: Hot-plate and tail-flick tests time the reaction to a heat stimulus.

This passage reports ED50 results from patent publication US11584765B2 (priority 2017, dated 2023).

Bounds are passed on as bounds.

`CCOCC1(CCc2ccccc2)CCN(Cc2ccc3[nH]c(=O)oc3c2)CC1` [Compound 111, 6-((4-(ethoxymethyl)-4-phenethylpiperidin-1-yl)methyl)benzo[d]oxazol-2(3H)-one]: the ED50 was over 10 mg/kg. The figure for `CCOCC1(CCc2ccccc2)CCN(Cc2ccc3[nH]cnc3c2)CC1` [Compound 112, 5-((4-(ethoxymethyl)-4-phenethylpiperidin-1-yl)methyl)-1H-benzo[d]imidazole] is over 10 mg/kg; for `CC(=O)Nc1ccc(CN2CCC(CCc3ccccc3)(COC3CCCC3)CC2)cc1` [Compound 113, N-(4-((4-(cyclopentyloxy-methyl)-4-phenethylpiperidin-1-yl)methyl)phenyl)acetamide] it is over 10 mg/kg.

With `CC(=O)Nc1ccc(CN2CCC(CCc3ccccc3)(COc3ccccc3)CC2)cc1` [Compound 114, N-(4-((4-phenethyl-4-(phenoxy-methyl)piperidin-1-yl)methyl)phenyl)acet-amide], the ED50 is over 10 mg/kg. The figure for `CCOCC1(CCc2ccccc2)CCN(Cc2ccc(NC(=O)C(F)(F)F)cc2)CC1` [Compound 115, N-(4-((4-(ethoxymethyl)-4-phenethylpiperidin-1-yl)methyl)phenyl)-2,2,2-trifluoroacetamide] is over 10 mg/kg.

For the compound `CCOCC1(CCc2ccccc2)CCN(Cc2ccc(NC(=O)N(C)C)cc2)CC1` [Compound 116, 3-(4-((4-(ethoxymethyl)-4-phenethylpiperidin-1-yl)methyl)phenyl)-1,1-dimethylurea], the ED50 is over 10 mg/kg. With `CCOCC1(CCc2ccccc2)CCN(Cc2ccc(NC(=O)NC)cc2)CC1` [Compound 117, 1-(4-((4-(ethoxymethyl)-4-phenethylpiperidin-1-yl)methyl)phenyl)-3-methylurea] the figure was over 10 mg/kg. Take `CC(=O)Nc1ccc(CN2CCC(CCc3ccccc3)(C3OC3C)CC2)cc1` (centres unmarked) [Compound 118, N-(4-((4-(3-methyloxiran-2-yl)-4-phenethylpiperidin-1-yl)methyl)phenyl)acetamide]: the ED50 was over 10 mg/kg. With `CCNc1ccc(CN2CCC(CCc3ccccc3)(CNC)CC2)cc1` [Compound 119, N-ethyl-4-((4-((methylamino)methyl)-4-phenethylpiperidin-1-yl)methyl)aniline] the figure was over 10 mg/kg; with `CC(=O)Nc1ccc(CN2CCC(CCc3ccccc3)(C3CCO3)C2)cc1` (centres unmarked) [Compound 120, N-(4-((3-(oxetan-2-yl)-3-phenethylpyrrolidin-1-yl)methyl)phenyl)acetamide], under 10 mg/kg. With `CCOCC1(CCc2ccccc2)CCN(CC2CCC(NC(C)=O)CC2)CC1.Cl` (centres unmarked) [Compound 121, N-(4-((4-(ethoxymethyl)-4-phenethylpiperidin-1-yl)methyl)cyclo-hexyl)acetamide HCl] the figure was over 10 mg/kg; with `CCOCC1(OCc2ccccc2)CCN(Cc2ccc(NC(C)=O)cc2)CC1` [Compound 122, N-(4-((4-(benzyloxy)-4-(ethoxymethyl)piperidin-1-yl)methyl)phenyl)acetamide], over 10 mg/kg.

Turning to `CC(=O)Nc1ccc(CN2CCC(CCc3ccccc3)(COc3ccccn3)CC2)cc1` [Compound 123, N-(4-((4-phenethyl-4-((pyridin-2-yloxy)methyl)piperidin-1-yl)methyl)phenyl)acetamide], the ED50 is over 10 mg/kg. On to `CC(=O)Nc1ccc(CN2CCC(CCc3ccccc3)(Oc3ccccn3)CC2)cc1` [Compound 124, N-(4-((4-phenethyl-4-(pyridin-2-yloxy)piperidin-1-yl)methyl)phenyl)acetamide], for which the ED50 is over 10 mg/kg. In the case of `CCOCC1(CCc2ccccc2)CCN(c2ccc(NC(C)=O)cc2)CC1` [Compound 125, N-(4-(4-(ethoxymethyl)-4-phenethylpiperidin-1-yl)phenyl)acetamide], the ED50 was over 10 mg/kg.

For the compound `CCOCC1(CCc2ccccc2)CCN(CCc2ccc(NC(C)=O)cc2)CC1` [Compound 126, N-(4-(2-(4-(ethoxymethyl)-4-phenethylpiperidin-1-yl)ethyl)phenyl)acetamide], the ED50 is over 10 mg/kg. Take `CCOCC1(CCc2ccccc2)CCN(c2ccc(N(C)C)cc2)CC1` [Compound 127, 4-(4-(ethoxymethyl)-4-phenethylpiperidin-1-yl)-N,N-dimethylaniline]: the ED50 was over 10 mg/kg. The figure for `CCOCC1(CCc2ccccc2)CCN(Cc2ccc(CCOC)cc2)CC1` [Compound 128, 4-(ethoxymethyl)-1-(4-(2-methoxyethyl)benzyl)-4-phenethylpiperidine] is over 10 mg/kg.

As for `CCOCC1(CCc2ccccc2)CCN(Cc2ccc(COC)cc2)CC1` [Compound 129, 4-(ethoxymethyl)-1-(4-(methoxymethyl)benzyl)-4-phenethylpiperidine HC], the ED50 is over 10 mg/kg. In the case of `CCOCC1(CCc2ccccc2)CCN(Cc2cc(C)c(NC(C)=O)c(C)c2)CC1` [Compound 130], the ED50 was over 10 mg/kg.

Turning to `CCOCC1(CCc2ccccc2)CCN(Cc2ccc(CC(C)=O)cc2)CC1` [Compound 131, 1-(4-((4-(ethoxymethyl)-4-phenethylpiperidin-1-yl)methyl)phenyl)propan-2-one], the ED50 is over 10 mg/kg. Turning to `CCOCC1(COCc2ccccc2)CCN(Cc2ccc(NC(C)=O)cc2)CC1.Cl` [Compound 132, N-(4-((4-(benzyloxymethyl)-4-(ethoxymethyl)piperidin-1-yl)methyl)phenyl)acetamide HCl], the ED50 was over 10 mg/kg. `CCOC(=O)C1(CCc2ccccc2)CCCN(Cc2ccc(NC(C)=O)cc2)CC1` (centres unmarked) [Compound 133, ethyl 1-(4-acetamidobenzyl)-4-phenethylazepane-4-carboxylate]: the ED50 is over 10 mg/kg. In the case of `CCOCC1(CCc2ccccc2)CCN(Cc2ccc(-c3nccs3)cc2)CC1` [Compound 134, 2-(4-((4-(ethoxymethyl)-4-phenethylpiperidin-1-yl)methyl)phenyl)thiazole], the ED50 was over 10 mg/kg. In the case of `CCOCC1(CCc2ccccc2)CCN(Cc2ccc(-c3nc(C)no3)cc2)CC1.Cl` [Compound 135, 5-(4-((4-(ethoxymethyl)-4-phenethylpiperidin-1-yl)methyl)pheny)-3-methyl-1,2,4-oxadiazole HCl], the ED50 is over 10 mg/kg.

Consider `CCOCC1(CCc2ccccc2)CCN(Cc2ccc(-c3ncon3)cc2)CC1.Cl` [Compound 136, 3-(4-((4-(ethoxymethyl)-4-phenethylpiperidin-1-yl)methyl)phenyl)-1,2,4-oxadiazole HCl], for which the ED50 was over 10 mg/kg. As to `CCOCC1(CCc2ccccc2)CCN(Cc2ccc(-c3nnco3)cc2)CC1` [Compound 137, 2-(4-((4-(ethoxymethyl)-4-phenethylpiperidin-1-yl)methyl)phenyl)-1,3,4-oxadiazole], the ED50 is over 10 mg/kg. In the case of `CCOCC1(CCc2ccccc2)CCN(Cc2ccc(-c3nncs3)cc2)CC1` [Compound 138, 2-(4-((4-(ethoxymethyl)-4-phenethylpiperidin-1-yl)methyl)phenyl)-1,3,4-thiadiazole], the ED50 is over 10 mg/kg. The figure for `CCOCC1(CCc2ccccc2)CCN(Cc2ccc(-c3cncs3)cc2)CC1` [Compound 139, 5-(4-((4-(ethoxymethyl)-4-phenethylpiperidin-1-yl)methyl)phenyl)thiazole] is over 10 mg/kg; for `CCOCC1(CCc2ccccc2)CCN(Cc2ccc(-c3ncc[nH]3)cc2)CC1` [Compound 140, 1-(4-(1H-imidazol-2-yl)benzyl)-4-(ethoxymethyl)-4-phenethylpiperidine] it is over 10 mg/kg; for `CCOCC1(CCc2ccccc2)CCN(Cc2ccc(-c3cnc[nH]3)cc2)CC1` [Compound 141, 1-(4-(1H-imidazol-5-yl)benzyl)-4-(ethoxymethyl)-4-phenethylpiperidine] it is over 10 mg/kg. With `CCOCC1(CCc2ccccc2)CCN(Cc2ccc(CC(=O)O)cc2)CC1` [Compound 142, 2-(4-((4-(ethoxymethyl)-4-phenethylpiperidin-1-yl)methyl)phenyl)acetic acid], the ED50 is over 10 mg/kg. With `CCOCC1(CCc2ccccc2)CCN(Cc2ccc(CC(=O)N(C)OC)cc2)CC1` [Compound 143, 2-(4-((4-(ethoxymethyl)-4-phenethylpiperidin-1-yl)methyl)phenyl)-N-methoxy-N-methylacetamide], the ED50 is over 10 mg/kg.

Turning to `CCOCC1(CCc2ccccc2)CCN(Cc2ccc(C(=O)OC)cc2)CC1` [Compound 144, methyl 4-((4-(ethoxymethyl)-4-phenethylpiperidin-1-yl)methyl)benzoate], the ED50 was over 10 mg/kg. The figure for `CCOCC1(CCc2ccccc2)CCN(Cc2ccc(C(=O)O)cc2)CC1` [Compound 145, 4-((4-(ethoxymethyl)-4-phenethylpiperidin-1-yl)methyl)benzoic acid] is over 10 mg/kg. As for `CCOCC1(CCc2ccccc2)CCN(Cc2ccc(C(C)=O)cc2)CC1` [Compound 146, 1-(4-((4-(ethoxymethyl)-4-phenethylpiperidin-1-yl)methyl)phenyl)ethanone], the ED50 is over 10 mg/kg. Regarding `CCOCC1(CCc2ccsc2)CCN(Cc2ccc(NC(C)=O)cc2)CC1` [Compound 147, N-(4-((4-(ethoxymethyl)-4-(2-(thiophen-3-yl)ethyl)piperidin-1-yl)methyl)phenyl)acetamide], the ED50 was under 10 mg/kg. Regarding `CCOCC1(CCc2ccc3ccccc3c2)CCN(Cc2ccc(NC(C)=O)cc2)CC1` [Compound 148, N-(4-((4-(ethoxymethyl)-4-(2-(naphthalen-2-yl)ethyl)piperidin-1-yl)methyl)phenyl)acetamide], the ED50 is over 10 mg/kg. As for `CCOCC1(CCc2ccccn2)CCN(Cc2ccc(NC(C)=O)cc2)CC1` [Compound 149, N-(4-((4-(ethoxymethyl)-4-(2-(pyridin-2-yl)ethyl)piperidin-1-yl)methyl)phenyl)acetamide], the ED50 is over 10 mg/kg. With `CCOCC1(CCc2ccccc2)CCN(Cc2ccc(Br)cc2)CC1` [Compound 150, 1-(4-bromobenzyl)-4-(ethoxymethyl)-4-phenethylpiperidine], the ED50 was over 10 mg/kg. With `CCOCC1(CCc2ccccc2)CCN(Cc2ccc(C#N)cc2)CC1` [Compound 151, 4-((4-(ethoxymethyl)-4-phenethylpiperidin-1-yl)methyl)benzonitrile] the figure was over 10 mg/kg.
